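Briefly, cells in 96-well plates were exposed to five compound concentrations for 48 h, and endpoints were estimated by linear interpolation. GI50 = concentration required for 50% inhibition of growth. TGI is the concentration that stops growth completely.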
Tests used:
Assay in all cases: NCI-60 cell line screen, 48 h
[1] = system: HT29 colon
[2] = system: SNB-19 CNS
[3] = system: HOP-92 NSCLC
[4] = system: OVCAR-8 ovarian
[5] = system: OVCAR-3 ovarian
[6] = system: TK-10 renal
[7] = system: A549 NSCLC
[8] = system: EKVX NSCLC
[9] = system: PC-3 prostate
[10] = system: HL-60(TB) leukemia
[11] = system: SF-295 CNS
[12] = system: K-562 leukemia
[13] = system: HCT-15 colon
[14] = system: BT-549 breast
[15] = system: MALME-3M melanoma
[16] = system: IGROV1 ovarian
[17] = system: COLO 205 colon
[18] = system: ACHN renal
[19] = system: CAKI-1 renal
[20] = system: NCI-H460 lung
[21] = system: SN12C renal
[22] = system: SNB-75 CNS
[23] = system: OVCAR-4 ovarian
[24] = system: MDA-MB-435
[25] = system: SF-539 CNS
[26] = system: LOX IMVI melanoma
[27] = system: UACC-62 melanoma
[28] = system: SK-MEL-2 melanoma
[29] = system: A498 renal
[30] = system: CCRF-CEM leukemia
[31] = system: HS 578T breast
[32] = system: 786-0 renal
[33] = system: SK-MEL-28 melanoma
[34] = system: U251 CNS
[35] = system: T-47D breast
[36] = system: NCI-H23 lung
[37] = system: M14 melanoma
[38] = system: SR leukemia
[39] = system: NCI/ADR-RES ovarian
[40] = system: RPMI-8226 leukemia
[41] = system: RXF 393 renal
[42] = system: SK-MEL-5 melanoma
[43] = system: UACC-257 melanoma
[44] = system: NCI-H226 lung
[45] = system: KM12 colon
[46] = system: OVCAR-5 ovarian
[47] = system: MDA-MB-231 breast
[48] = system: SW-620 colon
[49] = system: NCI-H522 lung
[50] = system: MOLT-4 leukemia
[51] = system: UO-31 renal
[52] = system: HOP-62 NSCLC
[53] = system: SF-268 CNS
[54] = system: MCF7 breast
[55] = system: SK-OV-3 ovarian
[56] = system: DU-145 prostate
[57] = system: HCT-116 colon

Q: Which results are given for `C#CCN(Cc1nc2cc(C(F)(F)F)ccc2nc1-c1ccccc1)c1ccc(C)cc1`?
A: GI50 [1]: 12.4 µM; TGI [1]: > 32 µM; GI50 [2]: 6.2 µM; TGI [2]: > 36.1 µM; GI50 [3]: 31.7 µM; TGI [3]: > 84.8 µM; GI50 [4]: 10.9 µM; TGI [4]: > 73.9 µM; GI50 [5]: 3.7 µM; TGI [5]: 16.8 µM; GI50 [6]: 15.4 µM; TGI [6]: > 39.6 µM; GI50 [7]: 9.23 µM; TGI [7]: > 93 µM; GI50 [8]: 29.1 µM; TGI [8]: > 62.1 µM; GI50 [9]: > 62.6 µM; TGI [9]: > 100 µM; GI50 [10]: 3.85 µM; TGI [10]: > 74.5 µM; GI50 [11]: 4.78 µM; TGI [11]: > 31.8 µM; GI50 [12]: 33 µM; TGI [12]: > 100 µM; GI50 [13]: 6.01 µM; TGI [13]: > 24.8 µM; GI50 [14]: 22.2 µM; TGI [14]: 69.9 µM; GI50 [15]: 15.7 µM; TGI [15]: 42.3 µM; GI50 [16]: 6.13 µM; TGI [16]: > 64.9 µM; GI50 [17]: 2.79 µM; TGI [18]: > 33.5 µM; GI50 [19]: 8.15 µM; TGI [19]: > 43.4 µM; GI50 [20]: 3.93 µM; TGI [20]: > 100 µM; GI50 [21]: > 28.2 µM; TGI [21]: > 59.9 µM; TGI [22]: > 25.2 µM; GI50 [23]: > 24.9 µM; TGI [23]: > 43.2 µM; GI50 [24]: 2.73 µM; TGI [24]: 9.09 µM; GI50 [25]: 24.3 µM; TGI [25]: > 100 µM; GI50 [26]: 24.8 µM; TGI [26]: > 48.5 µM; GI50 [27]: 7.32 µM; TGI [27]: 27.9 µM; GI50 [28]: 6.19 µM; TGI [28]: 34.5 µM; GI50 [29]: 10.6 µM; TGI [29]: 27.5 µM; GI50 [30]: > 55.7 µM; TGI [30]: > 100 µM; GI50 [31]: 10.2 µM; TGI [31]: > 54.4 µM; GI50 [32]: 15.5 µM; TGI [32]: > 42.8 µM; GI50 [33]: 13.9 µM; TGI [33]: > 41 µM; GI50 [34]: 11.6 µM; TGI [34]: > 38.1 µM; GI50 [35]: 2.85 µM; TGI [35]: 31.6 µM; GI50 [36]: 8.48 µM; TGI [36]: > 34.7 µM; GI50 [37]: 5.4 µM; TGI [37]: 32 µM; GI50 [38]: 16.1 µM; TGI [38]: 41.3 µM; GI50 [39]: 4.58 µM; GI50 [40]: > 48.5 µM; TGI [40]: > 76.3 µM; GI50 [41]: 4.18 µM; TGI [41]: 28 µM; GI50 [42]: 17 µM; TGI [42]: > 32.4 µM; GI50 [43]: 19.5 µM; TGI [43]: 59 µM; GI50 [44]: 8.07 µM; TGI [44]: 33 µM; GI50 [45]: 9.94 µM; TGI [45]: > 24.6 µM; GI50 [46]: > 21.2 µM; TGI [46]: > 40.9 µM; GI50 [47]: 9.39 µM; TGI [47]: 40.4 µM; GI50 [48]: 12.8 µM; TGI [48]: > 100 µM; GI50 [49]: 3.3 µM; TGI [49]: 26 µM; GI50 [50]: 3.1 µM; TGI [50]: > 79.9 µM; GI50 [51]: 13.2 µM; TGI [51]: 45.5 µM; GI50 [52]: 4.41 µM; TGI [52]: 33.9 µM; GI50 [53]: 17 µM; TGI [53]: > 100 µM; GI50 [54]: 2.38 µM; TGI [54]: > 59.1 µM; GI50 [55]: 8.56 µM; TGI [55]: > 26.4 µM; GI50 [56]: > 34.5 µM; TGI [56]: > 77.9 µM; GI50 [57]: 0.628 µM; TGI [57]: 15.5 µM

Source: PubChem BioAssay (NCI)
